“Also recorded” adds a separate entry of the source. Like-named read-outs stand apart in the source and are kept apart here.
Key:
SLC7A11 = SLC7A11 mRNA expression (qRT-PCR); details: HL60 and H1299 cells; listed as DPDS
H1299 cells = test: Cellular total selenium uptake by ICP-MS; assay type: cell-based, human; details: 6 h
Description: H1299 cells were treated with the indicated concentrations of different selenium compounds either alone or in combinations for 6 h. At the end of the treatment, cells were washed 3-times with cold PBS and collected. Cell pellets were digested and the total selenium concentration was measured using ICP-MS. […] Increased selenium delivery to the cells by diphenyl diselenide warrants increased cytotoxicity in cancer cells, as outlined before.

[1] = system: 23 different human cell lines of multiple cancer origins; test: Cytotoxicity across the cancer cell line panel (summary statements); assay type: cell-based; details: 5 μM; cancer cell lines of Table 2
Description: (§1) Two different cytotoxicity/proliferation kit was used in this study i.e., WST-1 proliferation assay kit (Roche, Indianapolis, IN, USA; Cat #28620000) and Cell-titer Glo-luminescent cell viability assay (Promega, WI, USA; Cat #0000348721). Majority of the cell proliferation/cytotoxicity experiments were performed with WST-1 assay. Briefly, cells were seeded at the indicated density for 24 h in 96 well plate, media was replaced, and subsequently treated with the test compounds at different doses. […] Cell titer Glo-assay was additionally performed in certain cases to validate the results from WST-1 assay as outlined above following manufacturer's instructions and luminescence was measured using a FLx100 Luminometer (CLARIOSTAR®, Ortenbery, Germany). […] Other proliferation/cytotoxicity assays were also carried out i.e., Quant™-iT PicoGreen ds DNA assay kit (Thermo Scientific, Rockwood, TN, USA, P7589) following manufacturer's instructions, Trypan blue (Sigma, Ayrshire, UK, T8154) and acid phosphatase assay for validation of cytotoxicity/proliferation data from other assays.

H661 = test: WST-1 cytotoxicity, H661; assay type: cell-based, human; details: Homo sapiens, NCI-H661, 24 h
Description: as §1

[2] = system: cystathionine gamma lyase; test: RNA-sequencing; assay type: cell-based; details: RNA-sequencing data
HL60 = test: WST-1 cytotoxicity and synergy analysis, HL60; assay type: cell-based, human; details: Homo sapiens, HL-60
Description: as §1

H1299 = test: WST-1 cytotoxicity, H1299; assay type: cell-based, human; details: Homo sapiens, NCI-H1299
Description: as §1

MCF-7 = test: WST-1 cytotoxicity, MCF-7; assay type: cell-based, human; details: Homo sapiens
Description: as §1

[3] = system: GSH and CySH in HL60 cells; test: Intracellular and extracellular thiols by HPLC; assay type: cell-based, human; details: listed as DPDS
Description: HPLC was performed as described by Luo et al. 21. Samples and standards were derivatized using monobromobimane (Calbiochem, La Jolla, CA) in sodium N-ethylmorpholine. Aliquots of the derivatized samples were filtered using a 0.22 μm Millipore filter. Glutathione (GSH), cysteine (CySH) and g-glutamylcysteine (7-GC) concentrations were then analyzed using high-performance liquid chromatography (HPLC). Both the total and reduced forms were measured. The HPLC separation, of the thiol-bimane adducts, was achieved on a column (4.5×150 mm) packed with 3-μm octadecyl-silica reversed-phase resin (Supelco, Inc., Bellefonte, PA) followed by fluorescent detection at excitation 394 nm and emission 480 nm (Millipore Co., Milford, MA). The system consisted of a Waters 625 LC pump system, a Waters 470 scanning fluorescence detector, and a Waters 717 Ultra WISP sample processor (Millipore, Milford, MA). Elution solvent A was 7.0% aqueous acetonitrile containing 0.25% acetic acid and perchloric acid; the final pH was adjusted to 3.76 with sodium hydroxide. Elution solvent B was 75% acetonitrile. The flow rate was 1.0 ml/min. The derivatives of GSH, CySH and 7-GC were then quantified based on peak areas and compared with standards. The CV for this method is 2.6%.

[4] = system: extracellular reduced thiols; test: Extracellular thiols measurement (DTDP method); assay type: cell-based, human
Description: Cell culture media was collected at specified time points after incubation with the respective compounds as described in the respective figure legends and extracellular total thiols were measured using the DTDP method 19. The protocol was adjusted to 96-well plate format. […] Absorbance was measured at 324 nm in a spectrophotometer (PowerWave HT, BioTek, VT, USA). The assay mixture with fresh media was used as a blank.

[5] = system: splenocytes comprising normal and leukemic cells; test: Frequency of normal and leukemic splenocytes by flow cytometry (CD45.1); details: 50.0 μM; 67 h
Description: Primary mice leukemic cells (CD45.1 background) bearing human MLL-AF9 oncogene were transplanted into healthy secondary mice (CD45.2 background). Following leukemia development in these mice, spleens were collected following euthanasia. Splenocytes, comprising both normal and leukemic cells, were isolated and cultured ex vivo in 24 well plates (1.5×10^6 cells/0.5 ml/well) for 12 h prior to exposing with the indicated compounds for another 67 h. At the end of the exposure, relative frequency of normal (CD45.1 negative) and leukemic (CD45.1 positive) cells were determined using flow cytometry.

A549 = test: WST-1 cytotoxicity, A549; assay type: cell-based, human; details: Homo sapiens
Description: as §1

NB4 = test: WST-1 cytotoxicity, NB4; assay type: cell-based, human; details: Homo sapiens, NB-4
Description: as §1

HMOX and NQO1 = test: mRNA expression of NFE2L2 target genes; assay type: cell-based, human; details: early time point
[6] = system: Primary Human hepatocytes
[7] = orally, 50-200 mg/day for 49 days; human; cited from earlier work
SNB-19 = test: WST-1 cytotoxicity, SNB-19; assay type: cell-based; details: Homo sapiens; SNB-19; alone; 24 h; read-out: Calculated IC50 values
Description: as §1

Hep3B = test: WST-1 cytotoxicity, Hep3B; assay type: cell-based; details: Homo sapiens, alone, 24 h, read-out: Calculated IC50 values
Description: as §1

THP-1 = test: WST-1 cytotoxicity, THP-1; assay type: cell-based; details: Homo sapiens; THP-1; alone; 24 h; read-out: Calculated IC50 values
Description: as §1

HeLa = test: WST-1 cytotoxicity, HeLa; assay type: cell-based; details: Homo sapiens, alone, 24 h, read-out: Calculated IC50 values
Description: as §1

IGROV1 = test: WST-1 cytotoxicity, IGROV1; assay type: cell-based, human; details: IGROV1; alone; 24 h; dose up to 200 μM
Description: as §1

LS174T = test: WST-1 cytotoxicity, LS174T; assay type: cell-based; details: Homo sapiens, alone, 24 h, read-out: Calculated IC50 values
Description: as §1

SHSY5-SY = test: WST-1 cytotoxicity, SHSY5-SY; assay type: cell-based; details: Homo sapiens; SHSY5-SY; alone; 24 h; read-out: Calculated IC50 values
Description: as §1

[8] = Reported oral administration of selenocystine in humans; assay type: in vivo, human; details: assuming 15% of 100 mg daily dose bioavailable, blood volume 5 L
OV2008 = test: WST-1 cytotoxicity, OV2008; assay type: cell-based; details: Homo sapiens; OV2008; alone; 24 h; read-out: Calculated IC50 values
Description: as §1

A375 = test: WST-1 cytotoxicity, A375; assay type: cell-based; details: Homo sapiens, A-375; A375; alone; 24 h; read-out: Calculated IC50 values
Description: as §1

HepG2 = test: WST-1 cytotoxicity, HepG2; assay type: cell-based; details: Homo sapiens; HepG2; alone; 24 h; read-out: Calculated IC50 values
AML193 = test: WST-1 cytotoxicity, AML193; assay type: cell-based; details: Homo sapiens; AML193; alone; 24 h; read-out: Calculated IC50 values
Description: as §1

U1906E = test: WST-1 cytotoxicity, U1906E; assay type: cell-based; details: Homo sapiens; U1906E; alone; 24 h; read-out: Calculated IC50 values
Description: as §1

HUH7 = test: WST-1 cytotoxicity, HUH7; assay type: cell-based; details: Homo sapiens, Huh-7; HUH7; alone; 24 h; read-out: Calculated IC50 values
Description: as §1

[9] = system: Primary peripheral blood mononuclear cells; test: WST-1 cytotoxicity, primary PBMCs; details: Homo sapiens, PBMC, 24 h, read-out: Calculated IC50 values
PANC-1 = test: WST-1 cytotoxicity, PANC-1; assay type: cell-based; details: Homo sapiens; PANC-1; alone; 24 h; read-out: Calculated IC50 values
Description: as §1

8-MGBA = test: WST-1 cytotoxicity, 8-MGBA; assay type: cell-based; details: Homo sapiens, 8-MG-BA; 8-MGBA; alone; 24 h; read-out: Calculated IC50 values
Description: as §1

U1906L = test: WST-1 cytotoxicity, U1906L; assay type: cell-based; details: Homo sapiens; U1906L; alone; 24 h; read-out: Calculated IC50 values
Description: as §1

[10] = Toxicity in black mice (C57BL/6), 3 weeks; assay type: in vivo; details: sodium selenite or selenocystine 3 mg/kg, alone or with diphenyl diselenide 50 and 100 mg/kg
Description: Black mice (C57BJ/6) mice were treated perorally every second day with either vehicle (canola oil) or diphenyl diselenide at two different dose levels (50 and 100 mg/kg body weight) for 3 weeks. Final body weight and weight of the major organs were measured at necropsy.
Black mice (C57BJ/6) mice were treated with vehicle (PBS i.p. and canola oil p.o.), sodium selenite (3 mg/kg body weight), selenocystine (3 mg/kg body weight), or in combinations with two different doses of diphenyl diselenide (50 and 100 mg/kg body weight) for 3 weeks. Final body weight and weight of the major organs were measured at necropsy.

[11] = system: Primary Human hepatocytes; test: WST-1 cytotoxicity, primary human hepatocytes; details: Hepatocyte, 24 h, read-out: Calculated IC50 values

## c1ccc([Se][Se]c2ccccc2)cc1 [Diphenyl diselenide, diphenyl diselenide]
SLC7A11
  SLC7A11 expression: Increased SLC7A11 expression; also recorded: potent inducer
H1299 cells
  selenium uptake from sodium selenite or selenocystine: dramatically increases selenium uptake
[1]
  toxicity at the specified dose: non-toxic
H661; H661 (Lung), compound alone, '>' = dose approximation, read-out: IC50 values
  IC50: 47.2 µM
[2]
  expression of cystathionine gamma lyase: increased
HL60; HL60 (Leukemia), compound alone, 24 h, '>' = dose approximation, read-out: IC50 values
  IC50: 38.4 µM
H1299; H1299 (Lung), compound alone, 24 h, '>' = dose approximation, read-out: IC50 values
  IC50: 26.2 µM
MCF-7; MCF7 (Breast), compound alone, 24 h, '>' = dose approximation, read-out: IC50 values
  IC50: 42.7 µM
[3]
  intracellular GSH levels and extracellular CySH levels: increased levels of intracellular GSH; also recorded: increases
[4]; HEK293 ATF4 reporter cells, 5.0 μM
  extracellular reduced thiols: no changes
[4]; all the tested cell lines, H1299 and HL60
  extracellular reduced thiols: highly effective
[5]
  frequency of either normal or leukemic cells: marginal inhibitory effect
A549; A549 (Lung), compound alone, 24 h, '>' = dose approximation, read-out: IC50 values
  IC50: 91.1 µM
NB4; NB4 (Leukemia), compound alone, 24 h, '>' = dose approximation, read-out: IC50 values
  IC50: 39.5 µM
HMOX and NQO1
  expression of HMOX and NQO1: significantly induced
[6]
  toxicity to normal human cells: non-toxic

## N[C@@H](C[Se][Se]C[C@H](N)C(=O)O)C(=O)O [Selenocystine, selenocystine]
[7]
  drug-induced toxic effects: no signs of drug-induced toxic effects were reported
SNB-19
  IC50: 78.7 µM
Hep3B
  IC50: 74.7 µM
THP-1
  IC50: 0.92 µM
HeLa
  IC50: 5.78 µM
IGROV1
  Calculated IC50 values: Non-toxic*
H661; H661, alone, read-out: Calculated IC50 values
  IC50: 55.7 µM
LS174T
  IC50: 3.88 µM
SHSY5-SY
  IC50: 115 µM
HL60; HL60, alone, 24 h, read-out: Calculated IC50 values
  IC50: 22.6 µM
HL60; HL60, alone, read-out: Calculated IC50 values of selenocystine
  IC50: 22.6 µM
[8]
  maximum plasma concentration (conservative estimation): 17.8 µM
OV2008
  IC50: 6.98 µM
A375
  IC50: 8.6 µM
H1299; H1299, alone, 24 h, read-out: Calculated IC50 values
  IC50: 22.7 µM
H1299; H1299, alone, read-out: Calculated IC50 values of selenocystine
  IC50: 22.7 µM
HepG2
  IC50: 12.4 µM
AML193
  IC50: 47 µM
MCF-7; MCF7, MCF-7, alone, 24 h, read-out: Calculated IC50 values
  IC50: 34.9 µM
MCF-7; MCF7, MCF-7, alone, read-out: Calculated IC50 values of selenocystine
  IC50: 34.9 µM
U1906E
  IC50: 2.18 µM
HUH7
  IC50: 92.7 µM
[9]
  IC50: 35.4 µM
PANC-1
  IC50: 18.5 µM
8-MGBA
  IC50: 49.7 µM
U1906L
  IC50: 17.8 µM
[10]
  toxic effects (body and organ weight at necropsy): No demonstrated toxic effects could be observed
A549; A549, alone, 24 h, read-out: Calculated IC50 values
  IC50: 8.7 µM
A549; A549, alone, read-out: Calculated IC50 values of selenocystine
  IC50: 8.7 µM
[11]
  IC50: 300 µM
NB4; NB4, alone, 24 h, read-out: Calculated IC50 values
  IC50: 44.1 µM
NB4; NB4, alone, read-out: Calculated IC50 values of selenocystine
  IC50: 44.1 µM

From patent US20240299401A1, “NOVEL REDOX-BASED THERAPEUTIC APPROACH FOR TREATMENT OF CANCER” (THE PENN STATE RESEARCH FOUNDATION, priority 2020, published 2024)
